Laboratory results taken from paper PMC5460445, “Pharmacokinetic Comparison of 20(R)- and 20(S)-Ginsenoside Rh1 and 20(R)- and 20(S)-Ginsenoside Rg3 in Rat Plasma following Oral Administration of Radix Ginseng Rubra and Sheng-Mai-San Extracts” (Evidence-based Complementary and Alternative Medicine : eCAM, 2017).

Experiment: Pharmacokinetic study in rats after oral administration of Radix Ginseng Rubra or SMS extracts (LC-MS of plasma)
Type: in vivo, Male Sprague-Dawley rats
Set-up: AUC(0–t) / AUC(0–∞): unit not given here
Conditions: for T max / AUC(0–t) / AUC(0–∞) / C max / t 1/2: rat plasma; for AUC(0–t) / AUC(0–∞) / C max / t 1/2: mean ± SD
Excerpt: A Shimadzu 2020 LC-MS system, with an electrospray ionization interface (ESI) source and Shimadzu LCMS LabSolution Workstation software for data processing, was utilized to perform the analytical procedures. The system includes two Shimadzu LC-20AD pumps, a Shimadzu SIL-20A autosampler, a Shimadzu CTO-20A column oven, a CBM-20A system controller, and a Shimadzu DGU-20A3 online degasser. A Q-array-octapole-quadrupole mass analyzer was used as the detector.
The chromatographic separation was carried on a Diamonsil C18 column (150 mm × 4.6 mm id, 5 μm; Dikma, China) with the mobile phase containing 0.5 mmol/L ammonium chloride in double-distilled water (A) and acetonitrile (B) at a flow rate of 1.0 mL/min. A diverter valve was used to direct 0.3 mL/min HPLC elute to MS detector and 0.7 mL/min elute to a waste container. A gradient elution program was used as follows: 0.01→6.0 min, 38% B; 6.0→6.5 min, 38→50% B; 6.5→15.0 min, 50% B; 15.0→15.5 min, 50→38% B. The column temperature was kept constant at 40°C.
The negative-ion electrospray ionization mode was utilized under the following source conditions: curved desolvation line (CDL) temperature, 250°C; block temperature, 400°C; interface temperature, 350°C; nebulizing gas flow rate, 1.5 L/min; drying gas flow rate, 10 L/min. CDL voltage, 0 V; Q-array DC (direct current) voltage, 0 V; interface voltage and RF ([…] frequency) voltage were fixed as those in tuning. The chlorinated adducts of molecular ions [M + Cl]^− of 20(R)-ginsenoside Rh1 and 20(S)-ginsenoside Rh1 at m/z 673.45, 20(R)-ginsenoside Rg3 and 20(S)-ginsenoside Rg3 at m/z 819.60, and digoxin (IS) at m/z 815.60 were monitored in selected ion monitoring (SIM) mode.
Radix Ginseng Rubra and Radix Ophiopogonis were cut into slices and Fructus Schisandrae was scrunched into powder before use. Three drugs were mixed in the ratio of 1 : 3 : 1.5 and the total weight was 110 g. The mixture was extracted with water for three times (1 : 10, 1 : 8, and 1 : 6, w/v) at 100°C, 1 h for each time. The SMS extract was obtained and condensed to 0.55 g/mL crude drug. 20 g Radix Ginseng Rubra was treated as above and the extract was condensed to 0.1 g/mL crude drug. SMS and Radix Ginseng Rubra concentrated solution was subjected to D101 macroporous resin and eluted with water followed by 95% ethanol. The 95% ethanol eluate was further concentrated to 5.5 g/mL crude drug for SMS and 1.0 g/mL crude drug for Radix Ginseng Rubra before use.
An aliquot of 300 μL plasma sample was transferred into a centrifuge tube together with 10 μL of IS solution. After vortex-mixing for 30 s, the analytes and IS were extracted from plasma with n-butanol for three times (1 : 3, 1 : 2, and 1 : 2, v/v). Then the organic layer was transferred into another centrifuge tube and evaporated to dryness at 37°C. Finally, the residue was reconstituted in 20 μL methanol and centrifuged at 12,000 ×g for 10 min; 10 μL aliquot was injected into chromatographic system for analysis.
Male Sprague-Dawley rats, 193–215 g in weight, were supplied by Shanghai Slater Experimental Animal Feeding Center (Shanghai, China). The rats were kept in an air-conditioned animal quarter at a temperature of 22 ± 2°C and a relative humidity of 50 ± 10%. The animals were acclimatized to the facilities for four days and then fasted with free access to water for 12 h prior to experiment. Animal experiments were carried out in accordance with the Regulations of Experimental Animal Administration issued by the Ministry of Science and Technology of China. All animal protocols were approved by the Ethics Committee on the Care and Use of Laboratory Animals of China pharmaceutical University.
Rats were divided randomly into two groups (5 rats in each time point per group) and given an oral dose of 1.35 mL/100 g Radix Ginseng Rubra and SMS extracts, respectively, which was derived from the dose in clinical practice with correction. […]

[1] = oral Radix Ginseng Rubra extract 1.35 mL/100 g

## CC(C)=CCCC(C)(O)C1CCC2C1C(O)CC1C2(C)CC(OC2OC(CO)C(O)C(O)C2O)C2C(C)(C)C(O)CCC21C [20(S)-Rh1, 20(S)-ginsenoside Rh1]
Oral Radix Ginseng Rubra extract 1.35 mL/100 g, dose-corrected AUC0–∞
  AUCC: 159.20 ± 26.03
[1]
  T max: 0.50 h
  AUC(0–t): 157.53 ± 25.46
  AUC(0–∞): 159.27 ± 26.03
  C max: 152.49 ± 30.98 ng/mL
  t 1/2: 2.85 ± 0.69 h
Oral SMS extract 1.35 mL/100 g
  T max: 1.50 h
  AUC(0–t): 409.48 ± 62.23
  AUC(0–∞): 419.75 ± 65.31
  C max: 195.34 ± 44.91 ng/mL
  t 1/2: 4.21 ± 1.05^∗ h
